Source: US20120302609A1, “Pyrazolines for the Modulation of PKM2” (Dynamix Pharmaceuticals LTD., priority 2011, published 2012)

Molecular target: T1, PKM2, human recombinant (Homo sapiens, UniProt P14618)
T1 construct: purchased BPS 50295
Assay: PKM2 enzymatic activity assay (Kinase-Glo Plus luminescence);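 for Max activity Group: percent increase over no-compound signal after subtracting the no-PKM2 background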
Format: biochemical
Settings: for AC50: 0.1 nM PKM2, 0.1 mM ADP, 0.5 mM PEP, 1 hour, room temperature, read-out: AC50 group; for Emax: 1 h, read-out: Max activity Group; for Max activity: 30 μM
Procedure: PKM2 performs the following enzymatic reaction, where the PKM2 substrates, PEP (phosphoenolpyruvate) and ADP, are converted to pyruvate and ATP as follows:
All of the enzymatic reactions were conducted in duplicates at room temperature for 1 hour in a 50 μL mixture containing: • PKM2 assay buffer (50 mM Imidazole, pH 7.2; 7 mM MgCl2; 50 mM KCl; 0.01% Tween; • and 0.05% BSA), 0.1 mM ADP, 0.5 mM PEP, 0.1 nM PKM2 enzyme (PKM2, human recombinant (BPS catalog number 50295)) and the indicated test compound. Fructose 1,6 biphosphat e, (FBP (Sigma)) was used as a positive control for activation at concentration of 0.5 mM. After enzymatic reactions, 50 μL of Kinase-Glo® Plus reagent (Promega kit) was added to each well and luminescence was measured using a BioTek Synergy™ 2 microplate reader.
PKM2 activity assays were performed in duplicates at each concentration. The luminescence data were analyzed using the computer software, GraphPad PRISM®. In the absence of the compound, the luminescence was defined as 0% activity. The percent activity in the presence of each compound was calculated according to the following equation:
% Activity=[(L−Lb)/(Lt−Lb)−1]×100%
where L=the luminescence in the presence of the test compound, Lb=the luminescence in the absence of PKM2, and Lt=the luminescence intensity in the absence of the test compound. The % activity values versus a series of compound concentrations were plotted using non-linear regression analysis of Sigmoidal dose-response curve generated with the equation Y=B+(T−B)/1+10^((LogEC50-X)×Hill Slope), where Y=percent activity, B=minimum percent activity, T=maximum percent activity, X=logarithm of compound and Hill Slope=slope factor or Hill coefficient. The AC50 values, shown in Table 2 were determined for the indicated test compounds as the concentration causing a half-maximal percent activity.

[1] = maximum percent activity, luminescence without compound = 0% activity

T1 sequence (P14618 whole entry): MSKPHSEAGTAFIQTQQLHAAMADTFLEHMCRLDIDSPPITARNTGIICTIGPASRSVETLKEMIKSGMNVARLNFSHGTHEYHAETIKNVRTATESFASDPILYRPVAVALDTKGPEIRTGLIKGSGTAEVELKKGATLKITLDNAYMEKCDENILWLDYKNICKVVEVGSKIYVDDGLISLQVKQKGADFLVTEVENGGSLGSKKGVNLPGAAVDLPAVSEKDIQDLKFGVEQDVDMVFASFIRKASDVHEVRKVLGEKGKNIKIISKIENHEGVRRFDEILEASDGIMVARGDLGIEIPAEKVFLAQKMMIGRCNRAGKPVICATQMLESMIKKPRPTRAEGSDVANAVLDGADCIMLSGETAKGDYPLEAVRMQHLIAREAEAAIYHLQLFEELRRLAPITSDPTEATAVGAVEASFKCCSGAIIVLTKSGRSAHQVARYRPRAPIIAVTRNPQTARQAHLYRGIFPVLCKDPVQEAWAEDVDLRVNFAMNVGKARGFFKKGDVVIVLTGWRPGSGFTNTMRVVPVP

| AC50 [nM] | Emax [1] [%] | Max activity | Max activity Group [1] | Compound |
| --- | --- | --- | --- | --- |
| 10000 to 100000 | ≤ 130 |  |  | COc1ccc(C2CC(c3ccc(NS(=O)(=O)c4ccc(F)cc4)cc3)=NN2C(C)=O)cc1 (single isomer, unassigned) [Compound 12A] |
| ≤ 1000 | ≥ 200 |  |  | COc1ccc(C2CC(c3ccc(NS(=O)(=O)c4ccc(OC)cc4)cc3)=NN2C(C)=O)cc1 (racemic) [Compound 19A, N-(4-(1-Acetyl-5-(4-methoxyphenyl)-4,5-dihydro-1H-pyrazol-3-yl)phenyl)-4-methoxy benzenesulfonamide] |
| ≤ 1000 | ≥ 200 |  |  | COc1ccc(C2CC(c3ccc(NS(=O)(=O)c4c(F)cccc4F)cc3)=NN2C(C)=O)cc1 (stereo not shown) [Compound 5A] |
| ≤ 1000 | 130 to 200 |  |  | COc1ccc(C2CC(c3ccc(NS(=O)(=O)c4ccccc4C(F)(F)F)cc3)=NN2C(C)=O)cc1 (stereo not shown) [Compound 20A] |
|  |  | −5% (30 μM) |  | CCS(=O)(=O)Nc1ccc(C2=NN(S(C)(=O)=O)C(c3ccc(OC)cc3)C2)cc1 (stereo not shown) [Compound 55A] |
| 1000 to 10000 | ≤ 130 |  |  | COc1ccc(C2CC(c3ccc(NS(=O)(=O)c4cccc(Cl)c4)cc3)=NN2C(C)=O)cc1 (stereo not shown) [Compound 28A, N-(4-(1-Acetyl-5-(4-methoxyphenyl)-4,5-dihydro-1H-pyrazol-3-yl)phenyl)-3-chloro benzenesulfonamide] |
| 1000 to 10000 |  |  | C (C: ≦130%) | COc1ccc(C2CC(c3ccc(NS(=O)(=O)c4ccccc4)cc3)=NN2C(C)=O)cc1 (stereo not shown) [Compound 17A, N-(4-(1-Acetyl-5-(4-methoxyphenyl)-4,5-dihydro-1H-pyrazol-3-yl)phenyl)benzene sulfonamide] |
| 1000 to 10000 | ≥ 200 |  |  | CCS(=O)(=O)Nc1ccc(C2=NN(C(=O)c3ccco3)C(c3ccc(OC)cc3)C2)cc1 (stereo not shown) [Compound 53A] |

Second part, the molecule before the results:

| Compound | AC50 [nM] | Emax [1] [%] | Max activity | Max activity Group [1] |
| --- | --- | --- | --- | --- |
| COc1ccc(C2CC(c3ccc(NS(=O)(=O)c4c(F)cccc4F)cc3)=NN2C(=O)c2cccnc2)cc1 (stereo not shown) [Compound 15A, 2,6-difluoro-N-(4-(5-(4-methoxyphenyl)-1-nicotinoyl-4,5-dihydro-1H-pyrazol-3-yl)phenyl)benzenesulfonamide] | 1000 to 10000 | ≥ 200 |  |  |
| CCS(=O)(=O)Nc1ccc(C2=NN(C(C)=O)C(c3ccccc3F)C2)cc1 (stereo not shown) [Compound 57A] | ≤ 1000 | ≤ 130 |  |  |
| COc1cc(C2CC(c3ccc(NS(C)(=O)=O)cc3)=NN2C(C)=O)cc(OC)c1OC (stereo not shown) [Compound 56A] |  |  | −6% (30 μM) |  |
| CC(=O)N1N=C(c2ccc(NS(=O)(=O)c3ccc(F)cc3)cc2)CC1c1ccc(F)cc1 (racemic) [Compound 25A, N-(4-(1-Acetyl-5-(4-fluorophenyl)-4,5-dihydro-1H-pyrazol-3-yl)phenyl)-4-fluoro benzenesulfonamide] | ≤ 1000 | ≤ 130 |  |  |
| COc1ccc(C2CC(c3ccc(NS(=O)(=O)c4ccc5c(c4)OCCO5)cc3)=NN2C(C)=O)cc1 (stereo not shown) [Compound 7A, N-(4-(1-acetyl-5-(4-methoxyphenyl)-4,5-dihydro-1H-pyrazol-3-yl)phenyl)-2,3-dihydrobenzo[b][1,4]dioxine-6-sulfonamide] | 1000 to 10000 | 130 to 200 |  |  |
| CCS(=O)(=O)Nc1ccc(C2=NN(C(C)=O)C(c3ccc4c(c3)OCCO4)C2)cc1 (stereo not shown) [Compound 4A] | ≤ 1000 | 130 to 200 |  |  |
| COc1ccc(C2CC(c3ccc(NS(=O)(=O)c4c(F)cccc4F)cc3)=NN2C(=O)c2ccccn2)cc1 (stereo not shown) [Compound 14A, 2,6-Difluoro-N-(4-(5-(4-methoxyphenyl)-1-picolinoyl-4,5-dihydro-1H-pyrazol-3-yl)phenyl)benzenesulfonamide] | 1000 to 10000 | ≤ 130 |  |  |
| CCS(=O)(=O)Nc1ccc(C2=NN(C(C)=O)C(c3ccc(Cl)o3)C2)cc1 (stereo not shown) [Compound 59A] |  |  | 47% (30 μM) |  |
| CCNS(=O)(=O)c1ccc(C2=NN(C(C)=O)C(c3ccc(OC)cc3)C2)cc1 (stereo not shown) [Compound 10A, 4-(1-acetyl-5-(4-methoxyphenyl)-4,5-dihydro-1H-pyrazol-3-yl)-N-ethylbenzenesulfonamide] | ≤ 1000 | 130 to 200 |  |  |
